Converted amounts (≈) assume the structure as drawn. “And” between values parts separate entries of the source, which are not always exact repeats. Equal values may be shown once. Read-outs that look alike come from different tables or passages of the source.
Legend:
[1] = target: T1, DXP synthase (Escherichia coli, UniProt P77488); assay: Aromatic aldehydes as DXP synthase acceptor substrates; format: biochemical
T1 construct: made in house
T1 sequence (P77488 1-620): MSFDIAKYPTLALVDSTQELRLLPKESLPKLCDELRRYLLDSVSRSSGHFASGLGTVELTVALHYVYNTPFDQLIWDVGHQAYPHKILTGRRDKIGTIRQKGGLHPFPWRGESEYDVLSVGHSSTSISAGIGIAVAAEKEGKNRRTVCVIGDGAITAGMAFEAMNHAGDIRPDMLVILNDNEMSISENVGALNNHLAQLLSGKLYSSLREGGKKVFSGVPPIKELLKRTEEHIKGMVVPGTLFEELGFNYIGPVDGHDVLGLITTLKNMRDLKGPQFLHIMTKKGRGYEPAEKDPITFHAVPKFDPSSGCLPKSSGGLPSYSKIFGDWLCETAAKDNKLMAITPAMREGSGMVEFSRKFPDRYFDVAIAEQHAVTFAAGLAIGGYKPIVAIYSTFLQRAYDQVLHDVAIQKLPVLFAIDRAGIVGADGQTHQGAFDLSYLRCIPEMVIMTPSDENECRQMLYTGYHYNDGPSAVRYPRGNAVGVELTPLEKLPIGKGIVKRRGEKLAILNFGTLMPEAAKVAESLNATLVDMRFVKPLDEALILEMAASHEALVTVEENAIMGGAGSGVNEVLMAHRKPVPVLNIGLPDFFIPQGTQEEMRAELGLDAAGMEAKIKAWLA
Source text: Some ThDP-dependent enzymes are known to catalyze C—C bond formation using aromatic substrates with varying turnover efficiencies; ^[20] [21] […] As a starting point, we tested several aromatic aldehydes as acceptor substrates.

[2] = tested on: E. coli BW25113; assay: Antimicrobial activity against E. coli BW25113 grown in CAMHB; format: cell-based; details: 0.63 to 5 mM, 16 hours
Experimental: FIG. 9 is a chart showing antimicrobial activity of acetylphosphonates against E. coli BW25113 grown in CAMHB. Standardized cell cultures (approximately ˜10^5 CFU mL^−1) were exposed to increasing concentrations of acetylphosphonate. Fractional growth was determined at 16 hours as a percentage of the growth of no drug control. BAP (●), PentAP (▪) and HexAP (▴) were varied from 0.31 to 5 mM. OctAP (▾) was varied from 0.63 to 5 mM, and BnAP (♦) was varied from 0.16 mM to 5 mM. Each data point is the average of 3 independent experiments and the error bars are standard error.
(§1) Standardized innocula of E. coli BW25113 (approximately ˜10^5 CFU mL^−1) were treated with varying concentrations of either MAP (blue) or EAP (orange) from 0.63 to 5 mM for 16 hours, and fractional growth was determined by comparison to a no drug control. The ΔtolC variant of BW25113 was also treated with varying concentrations of MAP (black) or EAP (green) from 0.63 to 5 mM for 16 hour, and fractional growth was determined by comparison to no drug controls. Experiments were performed in duplicate, and error bars represent standard deviation.

[3] = tested on: ΔtolC variant of E. coli BW25113; assay: Antimicrobial activity against ΔtolC variant grown in CAMHB; format: cell-based; details: 0.63 to 5 mM, 16 hour
Experimental: as §1

[4] = target: T2, E. coli DXP synthase (Escherichia coli, UniProt P77488); assay: biochemical; details: competitive with respect to pyruvate
T2 construct: made in house
Experimental: FIG. 4A, FIG. 4B, and FIG. 4C are charts showing competitive inhibition of DXP synthase by pentylacetylphosphonate (PentAP; FIG. 4A), hexylacetylphosphonate (HexAP; FIG. 4B), and octylacetyl phosphonate (OctAP; FIG. 4C). Inhibition assays were performed as previously described^[18], [40]). […] Pyruvate concentration was varied from 12-240 μM and acetylphosphonate concentration was varied: 0 μM (∘), 10 μM (●), 25 μM (□) and 50 μM (▪). Experiments were performed in triplicate, and data were subjected to non-linear regression analysis for Ki determinations (GraphPad Prism). Representative Lineweaver-Burk plots (GraFit from Erithacus Software) are shown for PentAP (FIG. 4A), HexAP (FIG. 4B) and OctAP (FIG. 4C) to illustrate the competitive inhibition mode with respect to pyruvate.
Inhibition of DXP synthase was measured as previously described^[13], [18]. […] Acetylphosphonate concentration was varied from 0 to 250 μM. […] Experiments were performed in triplicate for BAP and in duplicate for iPrAP
In order to evaluate the inhibitory activity of BnAP against DXP synthase, a continuous spectrophotometric coupled assay was used to measure formation of DXP by monitoring IspC consumption of NADPH (340 nm). ^[2] DXP synthase reaction mixtures (previously described) including BnAP (15, 30, and 60 μM), IspC (1 μM) and NADPH (100 μM) were pre-incubated at 37° C. for 5 minutes. Initial rates were measured after the reaction was initiated by the addition of DXP synthase. Inhibition of the coupling enzyme (IspC) by BnAP was not observed up to 1.5 mM. Experiments were performed in triplicate. Double reciprocal analysis of data was carried out using GraFit version 7 from Erithacus Software.

[5] = target: T3, Porcine pyruvate dehydrogenase (PDH E1 subunit) (Sus scrofa, UniProt P29804); assay: Inhibition of PDH by acetylphosphonates; format: biochemical; details: Table 5 (no unit in table; μM)
T3 construct: Ki^PDH; μM); Ki^PDH
T3 sequence (P29804 1-390): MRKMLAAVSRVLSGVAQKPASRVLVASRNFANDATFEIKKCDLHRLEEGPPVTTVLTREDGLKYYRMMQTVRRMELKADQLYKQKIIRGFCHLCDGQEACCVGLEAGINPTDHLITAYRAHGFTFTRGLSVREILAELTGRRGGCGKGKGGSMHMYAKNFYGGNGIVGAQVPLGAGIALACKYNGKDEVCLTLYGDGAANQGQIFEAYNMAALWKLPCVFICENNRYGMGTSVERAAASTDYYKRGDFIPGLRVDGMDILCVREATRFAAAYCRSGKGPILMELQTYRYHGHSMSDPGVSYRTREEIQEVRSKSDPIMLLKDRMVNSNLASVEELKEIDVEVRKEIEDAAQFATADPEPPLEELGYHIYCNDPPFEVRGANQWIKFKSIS
Experimental: FIG. 6A, FIG. 6B, and FIG. 6C are charts showing Competitive inhibition of procine PDH E1 subunit by PentAP (FIG. 6A), HexAP (FIG. 6B) and OctAP (FIG. 6C). Inhibition assays were performed as previously described^[18]. Pyruvate concentration was varied from 12.5-250 μM and acetylphosphonate concentration was varied: 0 μM (∘), 250 μM (PentAP) or 200 μM (HexAP and OctAP) (●), 500 μM (□) and 1000 μM (▪). Experiments were performed in triplicate, and data were subjected to non-linear regression analysis for Ki determinations (GraphPad Prism). Representative Lineweaver-Burk plots (GraFit from Erithacus Software) are shown for PentAP (FIG. 6A), HexAP (FIG. 6B) and OctAP (FIG. […]) to illustrate the competitive inhibition mode with respect to pyruvate.
Pyruvate dehydrogenase activity was measured spectrophotometrically as previously reported ^[38] by monitoring absorbance changes at 340 nm due to reduction of NAD^+ by PDH. Reaction mixtures contained 100 mM HEPES (pH 8.0), 1 mg/mL BSA, 0.2 mM ThDP, 0.1 mM coenzyme A, 1 mM MgCl2, 2 mM cysteine, 0.3 mM tris(2-carboxyethyl)phosphine (TCEP). The reaction was initiated with enzyme (0.01 units/ml) and activity was monitored at 30° C. For inhibition studies, reaction mixtures (described above) including BnAP (0.5, 1, 2.25 mM) were pre-incubated at 30° C. for 5 minutes. Initial rates were measured immediately after reactions were initiated by addition of PDH (0.01 units/ml). Double reciprocal analysis of data was carried out using GraFit version 7 from Erithacus Software.

[6] = tested on: wild-type K-12 E. coli (ATCC: MG1655); assay: Antimicrobial activity against E. coli K-12 grown in CAMHB; format: cell-based
Experimental: FIG. 7A and FIG. 7B are charts showing representative growth curves are shown for BAP (FIG. 7A) and BnAP (FIG. 7B). Alkylacetylphosphonates exert dose-dependent delay in E. coli K-12 (MG 1655) growth in CAMHB. Fractional growth (measured at 16 h, blue arrow) was determined relative to the no drug control. Standardized cell cultures were exposed to increasing concentrations of acetylphosphonate, and growth was determined by measuring the OD600 for a period of 16 hours. Acetylphosphonate concentration was varied from 0-5 mM: No drug (light blue), 0.08 mM (orange), 0.16 mM (gray), 0.31 mM (yellow), 0.63 mM (blue), 1.25 mM (green), 2.5 mM (dark blue) and 5.0 mM (brown).
Thus, BnAP, PentAP, HexAP and OctAP, also shown to inhibit DXP synthase, were evaluated for antimicrobial activity against wild-type K-12 E. coli (ATCC: MG1655) grown in rich medium (CAMHB).

[7] = tested on: E. coli K-12 (BW25113); assay: Antimicrobial activity against E. coli K-12 grown in M9 minimal medium; format: cell-based; details: Escherichia coli, BW25113
Source text: The product of DXP synthase, DXP, lies at a metabolic branchpoint. DXP serves as precursor not only for essential isoprenoids, but also is essential to central metabolism as a precursor to both thiamin diphosphate and pyridoxal phosphate. Thus, evaluation of antimicrobial activity of DXP synthase inhibitors in the standard, rich growth medium (CAMHB) which contains rescuing metabolites, likely underestimates the antimicrobial activities of these agents. Standard in vitro culture conditions may have poor predictive value for these agents in vivo; access to most nutrients is thought to be more difficult from the host than in nutrient rich media.

[8] = aromatic aldehyde acceptor substrate

In the case of `O=Cc1c(O)cc([N+](=O)[O-])cc1[N+](=O)[O-]` [2-Hydroxy-4,6-dinitrobenzaldehyde], the “Km higher than the natural substrate, D-GAP” value [1] is reported as ~18 fold, the Km [1, 8] is reported as 512 µM and the kcat [1, 8] is reported as 0.00583 ± 0.00083 s⁻¹.
`CCOP(=O)(O)C(C)=O` [EAP, ethyl acetylphosphonate] was tested, and the “activity against E. coli BW25113” value [2] was “inactive” and the “activity against ΔtolC variant” value [3] was “inactive”.
In the case of `COP(=O)(O)C(C)=O` [MAP, methyl acetylphosphonate], the “activity against E. coli BW25113” value [2] is reported as “inactive” and the “activity against ΔtolC variant” value [3] is reported as “inactive”.
For `CCCCCCCCOP(=O)(O)C(C)=O` [OctAP, Octylacetylphosphonate], the Ki ([4]; read-out: Ki (DXP synthase)) was 6 ± 0.2 µM, the Ki ([5]; read-out: Ki^PDH) was 154 ± 14 µM and the “antimicrobial effects against E. coli (MG1655)” value ([6]; FIG. 10, in words) was “inactive”. For the same molecule, the “inactive up to” value ([6]; rich medium (CAMHB)) was > 5 mM and > 1210 ug/mL and the MIC ([7]; M9 minimal medium, preliminary, read-out: MIC) was 1250 µM (≈ 295 µg/mL).
`CCCCCOP(=O)(O)C(C)=O` [PentAP, Pentylacetylphosphonate] gave a Ki ([4]; Ki (DXP synthase)) of 9.9 ± 0.4 µM, a Ki ([5]; Ki^PDH) of 250 ± 31 µM and an MIC90 ([6]; Escherichia coli, MG1655, 16 h, read-out: minimum inhibitory concentration (MIC90)) of 1250 µM (≈ 243 µg/mL). It also gave an MIC [7] of 12500 µM (≈ 2430 µg/mL).

Reference: patent US9930893B2, “Inhibitors of DXP synthase and methods of use thereof” (The Johns Hopkins University, priority 2014, dated 2018)
